A short description of data set [1]: Apigenin solubility in NaOH solutions. The format is physicochemical. Particulars: sodium hydroxide solution, aqueous buffer. The text has this:
A good solubility of polyphenols in the alkaline medium is very important in generating well hydrated polyphenols upon acidification. The regenerated hydrated products mix well in the formulations. Sodium hydroxide solution is an effective solubilizer at different concentrations for apigenin, a polyphenol flavonoid. This is exemplified in the table below— Apigenin Solubility in NaOH Solutions [table]

Data set [2] concerns acute radiation dermatitis. The settings on record: 49 patients; prophylactic MMF with emollient cream vs emollient cream alone; cited from earlier work.
Data set [3] can be described thus: SEM particle morphology of hydrated apigenin. The format is physicochemical. The text has this:
Scanning Electron Microscopy (SEM) images of the hydrated apigenin, and unprocessed apigenin powder were collected to determine particle morphology details. […] The chemical composition as determined by FTIR and Raman Spectroscopy, could not detect any chemical differences in the unprocessed apigenin and the hydrated apigenin. […] The hydrated apigenin was composed of fibers with diameters of 30-500 nm (a range of being nano-fibers) with aspect ratios measuring greater than 20.

Usually solubility stands for the concentration that dissolves in the medium under given conditions. A low value points to a poorly soluble substance.

Take `O=c1cc(-c2ccc(O)cc2)oc2cc(O)cc(O)c12` [Apigenin]: the solubility in data set [1] (NaOH Molarity 0.75 moles/liter) is greater than 150 mg/mL; in data set [1] (NaOH Molarity 1.015 moles/liter), greater than 200 mg/mL; in data set [1] (NaOH Molarity 2.0 moles/liter), greater than 300 mg/mL.
As for `C[C@@H]1C[C@H]2[C@@H]3CCC4=CC(=O)C=C[C@]4(C)[C@@]3(Cl)[C@@H](O)C[C@]2(C)[C@@]1(OC(=O)c1ccco1)C(=O)CCl` [MMF, mometasone furoate], the acute radiation dermatitis entry in data set [2] is “significantly decreased acute radiation dermatitis”.
For the compound `O=c1cc(-c2ccc(O)cc2)oc2cc(O)cc(O)c12` [hydrated apigenin], in data set [3], the “aspect ratios of fibers” value is “greater than 20” and the fiber diameters is reported as 30-500 nm.
